In assay [1] the test system is invasion of colorectal cancer cells. Briefly: In vivo relative invation (invasion; EV and KITENIN controls, no method described). The note with it: relative to EV (=1); KIT = KITENIN.
For another assay, the system named is KAI1 promoter. In words: KAI1 promoter luciferase reporter assay in transfected Caco2 cells. The format is cell-based, human. The note with it: 1 μM compound, 16 hours, transfected Caco2 cells, luciferase activity relative to DMSO control (=1); for fold induction at 1 µM: Homo sapiens, Caco-2, 16 h, read-out: Relative KAI promoter activity.

With `O=C(CNC(=O)c1cccc(CN2CCN(c3ncccn3)CC2)c1)c1ccccc1` [Example 235, N-(2-oxo-2-phenylethyl)-3-((4-(pyrimidin-2-yl)piperazin-1-yl)methyl)benzamide], the “In vivo relative invation” value in assay [1] is 1.133. For the same compound, in the assay with KAI1 promoter, the fold induction at 1 µM came to 1.44.
As to `O=C(CNC(=O)c1ccc(F)c(F)c1)c1ccccc1` [Example 35, 3,4-difluoro-N-(2-oxo-2-phenylethyl)benzamide], the “In vivo relative invation” value in assay [1] was 0.8811. Also, the fold induction at 1 µM with KAI1 promoter stood at 1.28.
Regarding `O=C(CNC(=O)c1ccccc1CN1CCCc2ccccc21)c1ccccc1` [Example 297, 2-((3,4-dihydroquinolin-1(2H)-yl)methyl)-N-(2-oxo-2-phenylethyl)benzamide], the “In vivo relative invation” value in assay [1] worked out at 1.231. Further, the fold induction at 1 µM in the assay on KAI1 promoter is 1.33.
For the compound `CCCN(CCC)Cc1cccc(C(=O)NCC(=O)c2ccccc2)c1` [Example 248, 3-((dipropylamino)methyl)-N-(2-oxo-2-phenylethyl)benzamide], the “In vivo relative invation” value in assay [1] is 1.116. Besides, the fold induction at 1 µM in the assay on KAI1 promoter worked out at 1.3.
For `CC(C)(C)CC(=O)N1CCC(Oc2ccccc2C(=O)NCC(=O)c2ccccc2)CC1` [Example 170, 2-((1-(3,3-dimethylbutanoyl)piperidin-4-yl)oxy)-N-(2-oxo-2-phenylethyl)benzamide], in that order: 1.244 and 1.03.
For `COc1cccc(C(=O)CNC(=O)c2cccc(CN3CCc4ccccc4C3)c2)c1` [Example 279, 3-((3,4-dihydroisoquinolin-2(1H)-yl)methyl)-N-(2-(3-methoxyphenyl)-2-oxoethyl)benzamide], in that order: 1.187 and 2.28.
With `CS(=O)(=O)NCC(=O)c1ccccc1` [Example 25, N-(2-oxo-2-phenylethyl)methanesulfonamide], the “In vivo relative invation” value in assay [1] is given as 1.215. In the assay with KAI1 promoter, the fold induction at 1 µM amounted to 1.49.
For `O=C(CNC(=O)c1ccc(F)cc1)c1cccnc1` [Example 133, 4-fluoro-N-(2-oxo-2-(pyridin-3-yl)ethyl)benzamide] the same measures were 1.32 and 1.15.
For `O=C(COc1ccccc1C(=O)NCC(=O)c1ccccc1)Nc1ccc2c(c1)CCC2` [Example 219, 2-(2-((2,3-dihydro-1H-inden-5-yl)amino)-2-oxoethoxy)-N-(2-oxo-2-phenylethyl)benzamide], in that order: 1.145 and 1.27.
For `CN(CCO)Cc1cccc(C(=O)NCC(=O)c2ccccc2)c1` [Example 243, 3-(((2-hydroxyethyl) (methyl)amino)methyl)-N-(2-oxo-2-phenylethyl)benzamide] the same measures were 1.105 and 1.48.
Consider `CN(C)C(=O)N1CCC(Oc2ccccc2C(=O)NCC(=O)c2ccccc2)CC1` [Example 180, N,N-dimethyl-4-(2-((2-oxo-2-phenylethyl)carbamoyl)phenoxy) piperidine-1-carboxamide], for which the “In vivo relative invation” value in assay [1] amounted to 1.253. In addition, the fold induction at 1 µM in the assay on KAI1 promoter is 1.09.
For `CCCCC(=O)NCC(=O)c1cccc(OC)c1` [Example 128, N-(2-(3-methoxyphenyl)-2-oxoethyl)pentanamide], in that order: 1.179 and 1.1.
For `Cc1ccccc1C(=O)N1CCC(Oc2ccccc2C(=O)NCC(=O)c2ccccc2)CC1` [Example 161, 2-((1-(2-methylbenzoyl)piperidin-4-yl)oxy)-N-(2-oxo-2-phenylethyl)benzamide] the same measures were 1.121 and 0.95.
For `O=C(CNC(=O)c1cccc(OC(F)(F)F)c1)c1ccccc1` [Example 39, N-(2-oxo-2-phenylethyl)-3-(trifluoromethoxy)benzamide], in that order: 0.5984 and 1.21.
With `Cc1cccc(C(=O)NCC(=O)c2ccc(Cl)cc2)c1` [Example 53, N-(2-(4-chlorophenyl)-2-oxoethyl)-3-methylbenzamide], the “In vivo relative invation” value in assay [1] is 0.9411. The fold induction at 1 µM with KAI1 promoter was 2.02.
For `CCCCCN(CCCCC)Cc1cccc(C(=O)NCC(=O)c2ccccc2)c1` [Example 250, 3-((dipentylamino)methyl)-N-(2-oxo-2-phenylethyl)benzamide] the same measures were 0.9781 and 1.25.
Turning to `O=C(CNC(=O)c1cccc(CN2CCC(N3CCCCC3)CC2)c1)c1ccccc1` [Example 237, 3-([1,4′-bipiperidin]-1′-ylmethyl)-N-(2-oxo-2-phenylethyl)benzamide], in assay [1], the “In vivo relative invation” value is 1.114. Further, the fold induction at 1 µM in the assay with KAI1 promoter was found to be 1.56.
In the case of `O=C(CNC(=O)c1ccccc1OC1CCN(S(=O)(=O)c2cccc([S](=O)=O)c2)CC1)c1ccccc1` [Example 175, 2-((1-((3-(dioxo-15-sulfanyl)phenyl)sulfonyl)piperidin-4-yl)oxy)-N-(2-oxo-2-phenylethyl)benzamide], in assay [1], the “In vivo relative invation” value came out at 1.149. Besides, the “Relative KAI promoter activity” value with KAI1 promoter stood at 0.97.
Regarding `O=C(COc1ccccc1C(=O)NCC(=O)c1ccccc1)Nc1ccc(Oc2ccccc2)cc1` [Example 221, 2-(2-oxo-2-((4-phenoxyphenyl)amino)ethoxy)-N-(2-oxo-2-phenylethyl)benzamide], the “In vivo relative invation” value in assay [1] was found to be 1.322. In the assay with KAI1 promoter, the fold induction at 1 µM amounted to 0.961.
Consider `CN(C)c1ccc(C(=O)CNC(=O)c2cccc(Cl)c2Cl)cc1` [Example 118, 2,3-dichloro-N-(2-(4-(dimethylamino)phenyl)-2-oxoethyl)benzamide], for which, in assay [1], the “In vivo relative invation” value amounted to 0.7681. Also, the fold induction at 1 µM with KAI1 promoter is 1.74.
Turning to `O=C(COc1ccccc1C(=O)NCC(=O)c1ccccc1)NCc1ccc2c(c1)OCO2` [Example 212], in assay [1], the “In vivo relative invation” value is reported as 1.219. Besides, in the assay with KAI1 promoter, the fold induction at 1 µM came to 1.01.
With `O=C(CNC(=O)c1cc(Cl)cc(Cl)c1)c1ccccc1` [Example 36, 3,5-dichloro-N-(2-oxo-2-phenylethyl)benzamide], the “In vivo relative invation” value in assay [1] was found to be 1.056. Besides, in the assay with KAI1 promoter, the fold induction at 1 µM was 1.16.
With `C=CC(=O)NCC(=O)c1ccc(Cl)cc1` [Example 50, N-(2-(4-chlorophenyl)-2-oxoethyl)acrylamide], in assay [1], the “In vivo relative invation” value is recorded as 1.089. The fold induction at 1 µM in the assay on KAI1 promoter was 0.94.
For `CN(C)Cc1cccc(C(=O)NCC(=O)c2ccccc2)c1` [Example 231, 3-((dimethylamino)methyl)-N-(2-oxo-2-phenylethyl)benzamide], in assay [1], the “In vivo relative invation” value came to 1.122. Further, the fold induction at 1 µM in the assay on KAI1 promoter came out at 1.56.
For `O=C(CNC(=O)c1ccccc1CN1CCOCC1)c1ccccc1` [Example 304, 2-(morpholinomethyl)-N-(2-oxo-2-phenylethyl)benzamide], in that order: 1.193 and 1.24.
For `Cc1ccc(S(=O)(=O)NCC(=O)c2ccc(Cl)cc2)cc1` [Example 68, N-(2-(4-chlorophenyl)-2-oxoethyl)-4-methylbenzenesulfonamide] the same measures were 1.125 and 0.88.
For `COc1cccc(C(=O)CNC(=O)c2cccc(CN3CCC(N4CCCCC4)CC3)c2)c1` [Example 283, 3-([1,4′-bipiperidin]-1′-ylmethyl)-N-(2-(3-methoxyphenyl)-2-oxoethyl)benzamide], in that order: 1.235 and 1.33.
Regarding `O=C(CNC(=O)c1ccc(F)cc1F)c1ccccc1` [Example 22, 2,4-difluoro-N-(2-oxo-2-phenylethyl)benzamide], the “In vivo relative invation” value in assay [1] is 1.163. Moreover, the fold induction at 1 µM in the assay on KAI1 promoter was determined as 1.56.
Consider `CCN(C)Cc1cccc(C(=O)NCC(=O)c2cccc(OC)c2)c1` [Example 287, 3-((ethyl (methyl)amino)methyl)-N-(2-(3-methoxyphenyl)-2-oxoethyl)benzamide], for which the “In vivo relative invation” value in assay [1] is recorded as 1.376. In addition, the fold induction at 1 µM in the assay with KAI1 promoter stood at 2.06.
For `O=C(CNC(=O)c1ccccc1OC1CCN(C(=O)c2ccc(Cl)cc2)CC1)c1ccccc1` [Example 151, 2-((1-(4-chlorobenzoyl)piperidin-4-yl)oxy)-N-(2-oxo-2-phenylethyl)benzamide], the “In vivo relative invation” value in assay [1] amounted to 1.212. Further, the fold induction at 1 µM in the assay with KAI1 promoter amounted to 1.05.
In the case of `Cc1ccccc1C(=O)NCC(=O)c1ccc(Cl)cc1` [Example 51, N-(2-(4-chlorophenyl)-2-oxoethyl)-2-methylbenzamide], the “In vivo relative invation” value in assay [1] is listed as 1.513. The fold induction at 1 µM in the assay with KAI1 promoter is 1.81.
For `O=C(CNC(=O)c1ccccc1OC1CCN(S(=O)(=O)Cc2ccccc2)CC1)c1ccccc1` [Example 188, 2-((1-(benzylsulfonyl)piperidin-4-yl)oxy)-N-(2-oxo-2-phenylethyl)benzamide], in that order: 1.123 and 0.92.
As to `CCCN(CCC)Cc1ccc(C(=O)NCC(=O)c2ccccc2)cc1` [Example 272, 4-((dipropylamino)methyl)-N-(2-oxo-2-phenylethyl)benzamide], the “In vivo relative invation” value in assay [1] was determined as 1.23. Moreover, the fold induction at 1 µM with KAI1 promoter came out at 1.59.
For `CCCc1ccccc1NC(=O)COc1ccccc1C(=O)NCC(=O)c1ccccc1` [Example 210, 2-(2-oxo-2-((2-propylphenyl)amino)ethoxy)-N-(2-oxo-2-phenylethyl)benzamide], in that order: 0.9274 and 1.03.
In the case of `COc1ccc(C(=O)NCC(=O)c2ccc(N(C)C)cc2)cc1` [Example 104, N-(2-(4-(dimethylamino)phenyl)-2-oxoethyl)-4-methoxybenzamide], the “In vivo relative invation” value in assay [1] came to 1.115. The “Relative KAI promoter activity” value in the assay with KAI1 promoter was determined as 1.78.
Regarding `O=C(CNC(=O)c1ccccc1CN1CCC(N2CCCCC2)CC1)c1ccccc1` [Example 301, 2-([1,4′-bipiperidin]-1′-ylmethyl)-N-(2-oxo-2-phenylethyl)benzamide], in assay [1], the “In vivo relative invation” value is on record as 1.146. The fold induction at 1 µM in the assay on KAI1 promoter was 1.61.

For the origin of these results see patent publication US20230150924A1, “NOVEL COMPOUND HAVING CANCER METASTASIS INHIBITORY ACTIVITY, PREPARATION METHOD THEREFOR, AND PHARMACEUTICAL COMPOSITION FOR INHIBITING CANCER METASTASIS AND INVASION OR TREATING COLORECTAL CANCER, COMPRISING COMPOUND” (CELLGENTEK CO., LTD., priority 2019, published 2023).
